According to patent US11304926B2, “Application of transient receptor potential cation channel TRPV3 in developing drug for preventing or treating psoriasis” (CHINA PHARMACEUTICAL UNIVERSITY, priority 2019, dated 2022):
Marks after values point to notes of the source that are not given here.

Key:
[1] = test system: mouse psoriasis model induced by 5% IMQ; experiment: PASI score of mouse psoriasis model induced by imiquimod under drug intervention; format: in vivo; details: 0.1% dexamethasone s.c. 100 μL twice a day + imiquimod, n = 8, mean ± SD
Excerpt: (§1) 16 C57BL/6 mice, with half male and half female were purchased from the Experimental Animal Center of Nanjing Medical University, wherein weights of the mice ranged from 18 g to 20 g. Back hair of the mice was shaved off, and then the mice were randomly divided into 2 groups (8 mice in each group) according to male and female genders. Before experiment, the mice were placed in a quiet environment kept away from strong light for 3 days to adapt to the environment, a ratio of an illuminating time to a dark time was 1:1, a room temperature was controlled at 25° C., a humidity was 55%, and the mice could eat and drink freely. 62.5 mg of 5% (0.1 g:2 g) imiquimod ointment (Zhuhai United Laboratories Co., Ltd.) was continuously applied to back skins of the mice for 6 days to induce a psoriasis-like lesion, while the same dose of vaseline ointment was given to the control group.
(§2) The clinical symptom of the mouse psoriasis model was evaluated by a PASI scoring standard from three indicators of erythema, scale and infiltration thickening. The scores ranged from 0 point to 4 points, and a total score was obtained by adding scores of the three indicators. The PASI scoring standard was as follows: 0 point referred to no symptom; 1 point referred to a mild degree; 2 points referred to a moderate degree; 3 points referred to a severe degree; and 4 points referred to an extremely severe degree. The PASI evaluation was conducted daily before the IMQ ointment was applied.
C57BL/6 mice, with half male and half female were purchased from the Experimental Animal Center of Nanjing Medical University, wherein weights of the mice ranged from 18 g to 20 g. The C57BL/6 mice were randomly divided into 4 groups (8 mice in each group). Mouse psoriasis models were established as described in Embodiment 2 (1). […]
Back skins of the mice were photographed and recorded on the 1st, 3rd and 5th days after modeling.

[2] = test system: back skins of C57BL/6 mice; experiment: PASI score of back skin of mice after continuous application of 5% imiquimod ointment (model induction); format: in vivo, mouse; details: 62.5 mg 5% imiquimod ointment on back skin, mean ± SD
Excerpt: as §1, with “group. The back skins of the mice were photographed and recorded on the 1st, 3rd and 5th days of modeling and skin appearances on the 5th day of modeling were shown in FIG. 2A.” for “group.”
as §2, with “applied. It should be noted that measurement data was represented by mean±standard deviation (mean±SD), and was detected by One-Way ANOVA, wherein in the analysis results, ** represented that P<0.01, which was relative to the vaseline group.” for “applied.”

SMILES	PASI score ([1]; day 1)	PASI score ([1]; day 2)	PASI score ([1]; day 3)	PASI score ([1]; day 4)	PASI score ([1]; day 5)	PASI score ([2]; day 1)	PASI score ([2]; day 2)	PASI score ([2]; day 3)	PASI score ([2]; day 4)	PASI score ([2]; day 5)
C[C@@H]1C[C@H]2[C@@H]3CCC4=CC(=O)C=C[C@]4(C)[C@@]3(F)[C@@H](O)C[C@]2(C)[C@@]1(O)C(=O)CO [Dexamethasone, dexamethasone, reference compound]	0.0 ± 0.0	0.3 ± 0.5	0.8 ± 0.5	1.5 ± 1.0	2.3 ± 0.9					
CC(C)Cn1cnc2c(N)nc3ccccc3c21 [Imiquimod, imiquimod]						0.0 ± 0.0	1.5 ± 0.8	4.5 ± 2.2**	6.8 ± 1.7**	9.8 ± 1.3**
